Measurements from PMC6321168, “Comparative Study on Excretive Characterization of Main Components in Herb Pair Notoginseng-Safflower and Single Herbs by LC–MS/MS” (Pharmaceutics, 2018).

Experiment: Urinary excretion study in rats after oral NS, SF or CNS (LC–MS/MS)
Type: in vivo
Settings: for concentration at 2 h / concentration at 4 h / concentration at 8 h / concentration at 12 h / concentration at 24 h / concentration at 36 h / concentration at 48 h / concentration at 72 h / concentration at 96 h / concentration at 120 h / concentration at 6 h: male, Sprague Dawley, rat, urine, oral; for Accumulative excretion amount / Accumulative excretion percentage / Excretion amount: rat urine
In short: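 Fasted male rats (n = 6/group) received NS 60 mg/kg, SF 50 mg/kg, or both, by oral gavage. Urine was collected over 0–120 h in metabolic cages and analysed by negative-ESI MRM LC–MS/MS. Cumulative excretion is expressed as a percentage of the ingested dose.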

## CC(C)=CCC[C@](C)(O[C@@H]1O[C@H](CO)[C@@H](O)[C@H](O)[C@H]1O)[C@H]1CC[C@]2(C)[C@@H]1[C@H](O)C[C@@H]1[C@@]3(C)CC[C@H](O)C(C)(C)[C@@H]3[C@@H](O[C@@H]3O[C@H](CO)[C@@H](O)[C@H](O)[C@H]3O)C[C@]12C [ginsenoside Rg1]
60 mg/kg, oral NS 60 mg/kg, 2 h
  concentration at 2 h: 3360 ± 7020 ng/mL
60 mg/kg, oral NS 60 mg/kg, 4 h
  concentration at 4 h: 1680 ± 1800 ng/mL
60 mg/kg, oral NS 60 mg/kg, 8 h
  concentration at 8 h: 1140 ± 1230 ng/mL
60 mg/kg, oral NS 60 mg/kg, 12 h
  concentration at 12 h: 727 ± 171 ng/mL
60 mg/kg, oral NS 60 mg/kg, 24 h
  concentration at 24 h: 135 ± 209 ng/mL
60 mg/kg, oral NS 60 mg/kg, 36 h
  concentration at 36 h: 115 ± 151 ng/mL
60 mg/kg, oral NS 60 mg/kg, 48 h
  concentration at 48 h: 100 ± 171 ng/mL
60 mg/kg, oral NS 60 mg/kg, 72 h
  concentration at 72 h: 178 ± 382 ng/mL
60 mg/kg, oral NS 60 mg/kg, 96 h
  concentration at 96 h: 85 ± 159 ng/mL
60 mg/kg, oral NS 60 mg/kg, 120 h
  concentration at 120 h: 59 ± 105 ng/mL
Oral CNS 110 mg/kg, 2 h
  concentration at 2 h: 1510 ± 1440 ng/mL
  Accumulative excretion amount: 1.881 ± 1.001 µg
  Accumulative excretion percentage: 0.066±0.032%
  Excretion amount: 1.881 ± 1.001 µg
Oral CNS 110 mg/kg, 4 h
  concentration at 4 h: 1690 ± 2340 ng/mL
  Accumulative excretion amount: 3.382 ± 2.188 µg
  Accumulative excretion percentage: 0.111±0.072%
  Excretion amount: 2.002 ± 1.609 µg
Oral CNS 110 mg/kg, 6 h
  concentration at 6 h: 544 ± 216 ng/mL
  Accumulative excretion amount: 3.994 ± 2.061 µg
  Accumulative excretion percentage: 0.132±0.073%
  Excretion amount: 0.816 ± 0.264 µg
Oral CNS 110 mg/kg, 8 h
  concentration at 8 h: 835 ± 697 ng/mL
  Accumulative excretion amount: 4.725 ± 2.486 µg
  Accumulative excretion percentage: 0.155±0.084%
  Excretion amount: 1.169 ± 0.913 µg
Oral CNS 110 mg/kg, 12 h
  concentration at 12 h: 789 ± 937 ng/mL
  Accumulative excretion amount: 5.430 ± 2.374 µg
  Accumulative excretion percentage: 0.188±0.080%
  Excretion amount: 0.805 ± 0.300 µg
Oral CNS 110 mg/kg, 24 h
  concentration at 24 h: 2350 ± 5830 ng/mL
  Accumulative excretion amount: 8.052 ± 5.572 µg
  Accumulative excretion percentage: 0.263±0.182%
  Excretion amount: 2.622 ± 5.710 µg
Oral CNS 110 mg/kg, 36 h
  concentration at 36 h: 228 ± 361 ng/mL
  Accumulative excretion amount: 8.388 ± 5.927 µg
  Accumulative excretion percentage: 0.274±0.195%
  Excretion amount: 0.336 ± 0.421 µg
Oral CNS 110 mg/kg, 48 h
  concentration at 48 h: 65 ± 82 ng/mL
  Accumulative excretion amount: 8.689 ± 6.056 µg
  Accumulative excretion percentage: 0.285±0.202%
  Excretion amount: 0.301 ± 0.361 µg
Oral CNS 110 mg/kg, 72 h
  concentration at 72 h: 93 ± 156 ng/mL
  Accumulative excretion amount: 8.87 ± 6.051 µg
  Accumulative excretion percentage: 0.293±0.206%
  Excretion amount: 0.185 ± 0.312 µg
Oral CNS 110 mg/kg, 96 h
  concentration at 96 h: 46 ± 53 ng/mL
  Accumulative excretion amount: 8.966 ± 6.090 µg
  Accumulative excretion percentage: 0.292±0.204%
  Excretion amount: 0.091 ± 0.106 µg
Oral CNS 110 mg/kg, 120 h
  concentration at 120 h: 80 ± 174 ng/mL
  Accumulative excretion amount: 9.027 ± 6.117 µg
  Accumulative excretion percentage: 0.292±0.206%
  Excretion amount: 0.061 ± 0.081 µg
Oral NS 60 mg/kg, 6 h
  concentration at 6 h: 1440 ± 1460 ng/mL
  Accumulative excretion amount: 9.709 ± 2.893 µg
  Accumulative excretion percentage: 0.285±0.086%
  Excretion amount: 3.616 ± 2.575 µg
Oral NS 60 mg/kg, 2 h
  Accumulative excretion amount: 4.985 ± 1.411 µg
  Accumulative excretion percentage: 0.142±0.045%
  Excretion amount: 4.985 ± 1.411 µg
Oral NS 60 mg/kg, 4 h
  Accumulative excretion amount: 6.610 ± 2.052 µg
  Accumulative excretion percentage: 0.193±0.061%
  Excretion amount: 2.844 ± 0.973 µg
Oral NS 60 mg/kg, 8 h
  Accumulative excretion amount: 11.931 ± 4.568 µg
  Accumulative excretion percentage: 0.348±0.137%
  Excretion amount: 3.890 ± 2.477 µg
Oral NS 60 mg/kg, 12 h
  Accumulative excretion amount: 15.061 ± 7.022 µg
  Accumulative excretion percentage: 0.439±0.200%
  Excretion amount: 3.130 ± 2.715 µg
Oral NS 60 mg/kg, 24 h
  Accumulative excretion amount: 15.697 ± 7.182 µg
  Accumulative excretion percentage: 0.451±0.202%
  Excretion amount: 0.636 ± 0.590 µg
Oral NS 60 mg/kg, 36 h
  Accumulative excretion amount: 16.042 ± 7.062 µg
  Accumulative excretion percentage: 0.463±0.204%
  Excretion amount: 0.402 ± 0.338 µg
Oral NS 60 mg/kg, 48 h
  Accumulative excretion percentage: 0.465±0.204%
  Excretion amount: 0.285 ± 0.276 µg
Oral NS 60 mg/kg, 72 h
  Accumulative excretion amount: 16.417 ± 7.147 µg
  Accumulative excretion percentage: 0.476±0.208%
  Excretion amount: 0.091 ± 0.014 µg
Oral NS 60 mg/kg, 96 h
  Excretion amount: 0.062 ± 0.110 µg
Oral NS 60 mg/kg, 120 h
  Excretion amount: 0.062 ± 0.148 µg
